# Key:
# CRTH2 receptor [1] = target: T1, CRTH2 receptor (Homo sapiens, UniProt Q9Y5Y4); experiment: PathHunter CHO-K1 CRTH2 β-arrestin antagonist assay; assay type: cell-based; conditions: PathHunter CHO-K1 CRTH2 β-arrestin cells, PGD2 agonist at EC80
# T1 sequence (Q9Y5Y4 1-395): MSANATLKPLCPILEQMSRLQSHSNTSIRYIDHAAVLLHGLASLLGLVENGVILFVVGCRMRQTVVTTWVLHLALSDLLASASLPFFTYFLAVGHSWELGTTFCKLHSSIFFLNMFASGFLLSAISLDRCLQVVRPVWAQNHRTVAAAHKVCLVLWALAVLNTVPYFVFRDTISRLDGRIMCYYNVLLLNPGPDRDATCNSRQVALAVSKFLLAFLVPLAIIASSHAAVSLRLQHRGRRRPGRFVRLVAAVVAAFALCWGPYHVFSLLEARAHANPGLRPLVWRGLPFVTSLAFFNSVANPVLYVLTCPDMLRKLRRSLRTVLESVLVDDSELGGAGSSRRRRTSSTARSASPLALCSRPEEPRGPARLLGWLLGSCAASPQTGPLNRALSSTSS
# Experimental: PathHunter® CHO-K1 CRTH2 β-arrestin cells (DiscoverX, catalogue number 93-0291C2) grew under standard conditions, and were inoculated into a white-wall 384-well microplate at a density of 5,000 cells/well. 20 μL of Cell Plating Reagent 1 was used in each well. Before the test, the cells were incubated overnight at 37° C./5% CO2. A test compound was serially diluted in DMSO with a dilution factor of 3-fold to give 8 concentrations of the test compound. Shortly before the test, the serially diluted test compound was further diluted with the test buffer to 5 times of the test concentration. 5 μL of the further diluted test compound was added to the cells, and the cells were incubated for 30 min at 37° C. The concentration of the solvent was 1%. 5 μL of 6×EC80 agonist (PGD2) buffer was added to the cells, and the cells were incubated for 90 min at 37° C. Measured signals were generated by one-time addition of 15 μL (50% v/v) of PathHunter detection mixture reagent and subsequent one-hour incubation. The microplate was read through the chemiluminescent signals of PerkinElmer Envision™ reader. Biological activity of the test compound was analyzed by CBIS data analysis suite (ChemInnovation, CA), and was denoted as IC50 value.
# [2] = Stability test of crystal form A (impurity content); assay type: physicochemical
# Source text: (§1) Samples placed under high temperature and high humidity conditions were sealed with aluminum foil, and small holes were made in the foil to ensure that the samples can fully contact with ambient air. Samples placed under strong light conditions were sealed with screw caps.
# [3] = Plasma pharmacokinetic assay in mice; assay type: in vivo; conditions: mouse, female C57 BL/6 mice
# Experimental: Twelve female C57 BL/6 mice were used in plasma pharmacokinetic assay, randomly divided into two groups, with 6 animals in each group. Animals in the first group were administered intravenously 1 mg/kg of the test drug, and animals in the second group were administered intragastrically 5 mg/kg of the test drug. A formula comprising HPbCD and cosolvent (Solutol®) was used as formulation vehicle, and the obtained intravenous or intragastric formulations were all clear solutions. For animals in the intravenous group and the intragastric group, blood was collected from the saphenous vein at 0.0833, 0.25, 0.5, 1, 2, 4, 8, and 24 hours after administration, with 3 samples at each time point. Plasma samples collected from the intragastric administration group were frozen at −80° C. and thawed before LC-MS/MS sample analysis. The thawed plasma samples were subjected to protein precipitation by adding acetonitrile containing an internal standard in a certain ratio, and centrifuged to obtain a supernatant for LC-MS/MS injection. AP14000 or 5500 was used as the analytical instrument, ACQUITY UPLC BEH C18 (2.1×50 mm, 1.7 μm) was used as the chromatographic column, and the ionization of the test compound was performed by an ESI positive or negative ion source. There were 8 concentrations of the standard sample in each analysis batch, the ratio of the peak area of the test compound to the peak area of the internal standard (IS) was noted as Y, the concentration of the test compound in the plasma sample was noted as X, 1/x^2 was taken as the weighting coefficient to carry on the linear regression, and the regression equation of response and concentration was obtained. There were also corresponding quality control samples in each analysis batch. Phoenix 6.3 WinNonlin® was used for data processing to give corresponding PK parameters.
# [4] = Solid stability test of crystal form A (crystal form); assay type: physicochemical
# Source text: as §1
# [5] = system: mice model of chronic/acute asthma induced by ovalbumin (OVA) and aluminum hydroxide (Al(OH)3); experiment: Mice model of chronic/acute asthma induced by OVA and Al(OH)3; assay type: in vivo
# CRTH2 receptor [6] = target: T1, CRTH2 receptor; conditions: background statement; cited from earlier work
smiles,measurement,setting,value
Cc1c(Cc2ccc3c(c2)C(F)(F)CCS3(=O)=O)c2cc(F)ccc2n1CC(=O)O [Compound 1],IC50,CRTH2 receptor [1],< 100 nM
Cc1c(Cc2ccc3c(c2)C(F)(F)CCS3(=O)=O)c2cc(F)ccc2n1CC(=O)O [Crystal Form A of Compound 1],Impurity Content,[2]; 0 Day (Table 5),0.07%
same,Impurity Content,"[2]; 25° C/60% RH, 3 months",0.09%
same,Impurity Content,"[2]; 25° C/60% RH, 6 months",0.13%
same,Impurity Content,"[2]; 30° C/65% RH, 3 months",0.09%
same,Impurity Content,"[2]; 30° C/65% RH, 6 months",0.15%
same,Impurity Content,"[2]; 40° C/75% RH, 0 Day (Table 6)",0.07%
same,Impurity Content,"[2]; 40° C/75% RH, 1 month",0.17%
same,Impurity Content,"[2]; 40° C/75% RH, 2 months",0.13%
same,clearance,"[3]; intravenous 1 mg/kg, read-out: Clearance Rate of Intravenous Administration (Cl, mL/min/kg)",4.55 mL/min/kg
same,half-life,"[3]; po, intragastric 5 mg/kg, read-out: Half-life of Intragastric Administration (T1/2, hr) (converted)",3.19 h
same,Cmax,"[3]; po, intragastric 5 mg/kg, read-out: Maximum Blood Concentration of Intragastric Administration (Cmax)",6.77 µM
same,AUC,"[3]; po, intragastric 5 mg/kg, read-out: Plasma Exposure of Intragastric Administration (AUC, nM*hr)",26000 nM·h
same,Crystal Form,"[4]; 40° C, Reletive Humidity 75%, Exposure, day 10",Crystal Form A
same,Crystal Form,"[4]; 40° C, Reletive Humidity 75%, Exposure, day 30",Crystal Form A
same,Crystal Form,"[4]; 40° C, Reletive Humidity 75%, Exposure, day 60",Crystal Form A
same,Crystal Form,"[4]; 40° C, Reletive Humidity 75%, Exposure, day 90",Crystal Form A
same,Crystal Form,"[4]; 60° C, Reletive Humidity 75%, Exposure, day 10",Crystal Form A
same,Crystal Form,"[4]; 60° C, Reletive Humidity 75%, Exposure, day 30",Crystal Form A
same,Crystal Form,"[4]; 60° C, Reletive Humidity 75%, Exposure, day 60",Crystal Form A
same,Crystal Form,"[4]; 60° C, Reletive Humidity 75%, Exposure, day 90",Crystal Form A
same,Crystal Form,"[4]; High Humidity (Room temperature/Reletive Humidity 92.5%, Exposure), day 5",Crystal Form A
same,Crystal Form,"[4]; High Humidity (Room temperature/Reletive Humidity 92.5%, Exposure), day 10",Crystal Form A
same,Crystal Form,"[4]; High Temperature (60° C., Exposure), day 5",Crystal Form A
same,Crystal Form,"[4]; High Temperature (60° C., Exposure), day 10",Crystal Form A
same,Crystal Form,"[4]; Strong Light (5000 lx, Sealed), day 5",Crystal Form A
same,Crystal Form,"[4]; Strong Light (5000 lx, Sealed), day 10",Crystal Form A
same,Crystal Form,[4]; day 0,Crystal Form A
same,number of eosinophils,[5],significantly reduce the number of eosinophils
O=C(O)CCn1c2c(c3ccccc31)C[C@H](NS(=O)(=O)c1ccc(F)cc1)CC2 [Ramatroban],CRTH2 receptor antagonism,CRTH2 receptor [6],weak CRTH2 receptor antagonist

# — patent US11034681B2, “Crystal form of indole derivative and preparation method and use thereof” (CHIA TAI TIANQING PHARMACEUTICAL GROUP CO., LTD., priority 2018, dated 2021)
